System: Plasmodium berghei
Experiment: Luciferase/luciferin-expressing antifolate-resistant parasites were used to infect a culture of HepG2 cells that were pre-incubated with compounds. Infected hepatocytes emit light due to the luciferase reaction. Assay results are presented as the percent inhibition of light emission compared to control. […]
Type: functional
Details: sporozoite; for IC90: read-out: LUCIFERASE INFECTION ASSAY - IC90
[1] = read-out: LUCIFERASE INFECTION ASSAY - IC50

Cc1c(-c2ccccc2)nc2ccccc2c1C(=O)OCC(=O)c1cc(C)n(Cc2ccco2)c1C
IC50 [1]: > 10 µM
IC90: > 10 µM

CCOC(=O)c1c(C)[nH]c(C(=O)C(C)N2CCN(c3ccccc3O)CC2)c1C (centres undefined)
IC50 (HEPG2TOX_HILL_SLOPE 6.06, HEPG2TOX_R_SQUARED 0.507, PBLUC_HILL_SLOPE 4.15, PBLUC_R_SQUARED 0.577, read-out: LUCIFERASE INFECTION ASSAY - IC50): 7.31 µM
IC90: > 10 µM

O=c1c2ccccc2nc(SCc2cn3cc(Br)ccc3n2)n1-c1ccccc1F
IC50 (HEPG2TOX_HILL_SLOPE 9.92, HEPG2TOX_R_SQUARED 0.174, PBLUC_HILL_SLOPE 13.7, PBLUC_R_SQUARED 0.208, read-out: LUCIFERASE INFECTION ASSAY - IC50): 3.4 µM
IC90: 3.99 µM

Clc1ccc(-c2nc3ncc(Br)cc3[nH]2)cc1
IC50 (FFLUC_HILL_SLOPE 1.95, FFLUC_R_SQUARED 0.684, PBLUC_HILL_SLOPE 3.28, PBLUC_R_SQUARED 0.422, read-out: LUCIFERASE INFECTION ASSAY - IC50): 1.92 µM
IC90: 3.76 µM

CN(C)c1ccc(-c2cc3c(cn2)nc(NCc2ccccc2F)n3C)cc1
IC50 (HEPG2TOX_HILL_SLOPE 12.8, HEPG2TOX_R_SQUARED 0.633, PBLUC_HILL_SLOPE 3.52, PBLUC_R_SQUARED 0.567, read-out: LUCIFERASE INFECTION ASSAY - IC50): 5.77 µM
IC90: > 10 µM

O=S(=O)(c1ccc2oc(Nc3ccc(Cl)c(C(F)(F)F)c3)nc2c1)N1CCOCC1
IC50 (HEPG2TOX_HILL_SLOPE 6.56, HEPG2TOX_R_SQUARED 0.393, PBLUC_HILL_SLOPE 2.74, PBLUC_R_SQUARED 0.701, read-out: LUCIFERASE INFECTION ASSAY - IC50): 4.51 µM
IC90: > 10 µM

CCOC(=O)c1sc(N)c(C#N)c1CSc1nnc(Nc2ccc(CC)cc2)s1
IC50 (HEPG2TOX_HILL_SLOPE 1.26, HEPG2TOX_R_SQUARED 0.992, PBLUC_HILL_SLOPE 3.19, PBLUC_R_SQUARED 0.556, read-out: LUCIFERASE INFECTION ASSAY - IC50): 2.58 µM
IC90: 5.14 µM

COc1cc(/C=C(\C#N)c2nc3ccccc3[nH]2)ccc1OC(=O)c1cc2c(C)nn(-c3ccccc3)c2s1
IC50 (FFLUC_HILL_SLOPE 1.24, FFLUC_R_SQUARED 0.777, PBLUC_HILL_SLOPE 2.61, PBLUC_R_SQUARED 0.768, read-out: LUCIFERASE INFECTION ASSAY - IC50): 5.91 µM
IC90: > 10 µM

Cc1nc2c(/C(N)=N/OCc3cccc(Cl)c3)cnn2c(C)c1C
IC50 [1]: > 9.6 µM
IC90: > 9.6 µM

CCCCNS(=O)(=O)c1ccc2nc(SCc3cccc(OC)c3)[nH]c2c1
IC50 [1]: > 10 µM
IC90: > 10 µM

CCC(C)NC(=O)c1c(NC(=O)c2ccc(F)c(Cl)c2)nc2ccc(C)cn12 (centres undefined)
IC50 (HEPG2TOX_HILL_SLOPE 2.61, HEPG2TOX_R_SQUARED 0.962, PBLUC_HILL_SLOPE 2.74, PBLUC_R_SQUARED 0.471, read-out: LUCIFERASE INFECTION ASSAY - IC50): 2.67 µM
IC90: 5.96 µM

Cc1cc(C2=NNC(=NC3CC3)SC2)c(C)n1-c1ccc2c(c1)OCO2
IC50 (FFLUC_HILL_SLOPE 2.46, FFLUC_R_SQUARED 0.719, PBLUC_HILL_SLOPE 1.67, PBLUC_R_SQUARED 0.595, read-out: LUCIFERASE INFECTION ASSAY - IC50): 2.61 µM
IC90: 9.71 µM

O=[N+]([O-])c1cccc(-c2nnc3c4ccccc4nc(C(F)(F)F)n23)c1
IC50 (HEPG2TOX_HILL_SLOPE 7.76, HEPG2TOX_R_SQUARED 0.363, PBLUC_HILL_SLOPE 1.91, PBLUC_R_SQUARED 0.781, read-out: LUCIFERASE INFECTION ASSAY - IC50): 4.42 µM
IC90: > 9.19 µM

COc1cccc(CN(C)c2ncnc3sc(C)c(C)c23)c1OC
IC50 (HEPG2TOX_HILL_SLOPE 2.36, HEPG2TOX_R_SQUARED 0.798, PBLUC_HILL_SLOPE 15.6, PBLUC_R_SQUARED 0.417, read-out: LUCIFERASE INFECTION ASSAY - IC50): 3.34 µM
IC90: 3.84 µM

O=C(NNC(=O)c1cc(-c2ccc(Cl)s2)nc2ccccc12)c1cnccn1
IC50 (HEPG2TOX_HILL_SLOPE 2.73, HEPG2TOX_R_SQUARED 0.802, PBLUC_HILL_SLOPE 17.7, PBLUC_R_SQUARED 0.568, read-out: LUCIFERASE INFECTION ASSAY - IC50): 1.12 µM
IC90: 1.27 µM

O=C(Oc1ccc(Cl)cc1Cc1ccccc1)c1ccccc1-c1ccc(C(F)(F)F)cc1
IC50 (PBLUC_HILL_SLOPE 2.87, PBLUC_R_SQUARED 0.0345, read-out: LUCIFERASE INFECTION ASSAY - IC50): 8.61 µM
IC90: > 10 µM

CC(C)Oc1ccc(Nc2cc3c(cn2)nc(NCc2ccccc2)n3C)cc1
IC50 (PBLUC_HILL_SLOPE 3.16, PBLUC_R_SQUARED 0.219, read-out: LUCIFERASE INFECTION ASSAY - IC50): 5.76 µM
IC90: > 10 µM

COc1ccc(-c2cnc(N)c(-c3ccc(O)c(OC)c3)c2)cn1
IC50 (FFLUC_HILL_SLOPE 1.75, FFLUC_R_SQUARED 0.121, PBLUC_HILL_SLOPE 11, PBLUC_R_SQUARED 0.572, read-out: LUCIFERASE INFECTION ASSAY - IC50): 3.03 µM
IC90: 3.7 µM

COc1ccc(-n2ccnc2SCc2nc(N)c3ccccc3n2)cc1
IC50 [1]: > 10 µM
IC90: > 10 µM

Cc1cccc(NS(=O)(=O)c2cc(C(=O)OCC(=O)Nc3ccc(F)c(F)c3F)ccc2C)c1
IC50 [1]: > 10 µM
IC90: > 10 µM

Cc1sc(-c2ccco2)nc1C(=O)Nn1cnc2ccccc21
IC50 [1]: > 10 µM
IC90: > 10 µM

CC(=O)Nc1ccc(C2NC(=O)NC(c3ccccc3)=C2c2nc3ccccc3s2)cc1 (centres undefined)
IC50 [1]: > 10 µM
IC90: > 10 µM

NC(=O)NC(=O)C(Nc1ccc(Oc2ccccc2)cc1)c1ccccc1 (centres undefined)
IC50 [1]: > 10 µM
IC90: > 10 µM

COc1ccc(NC(=O)c2ccc(C)c(F)c2)cc1OCc1cccnc1
IC50 [1]: 6.13 µM
IC90: > 10 µM

COc1ccccc1-c1ccnc2n[nH]c(-c3cc(OC)c(OC)c(OC)c3)c12
IC50 (HEPG2TOX_HILL_SLOPE 2.69, HEPG2TOX_R_SQUARED 0.93, PBLUC_HILL_SLOPE 7.13, PBLUC_R_SQUARED 0.294, read-out: LUCIFERASE INFECTION ASSAY - IC50): 2.89 µM
IC90: 3.93 µM

COCCCn1c(SCC(=O)NC(=O)Nc2ccccc2)n[nH]c1=O
IC50 [1]: > 10 µM
IC90: > 10 µM

CC(C)(C)c1ccc(CN2C(=O)CS/C2=C\C(=O)c2ccc(C(C)(C)C)cc2)cc1
IC50 (FFLUC_HILL_SLOPE 1.26, FFLUC_R_SQUARED 0.691, PBLUC_HILL_SLOPE 1.17, PBLUC_R_SQUARED 0.615, read-out: LUCIFERASE INFECTION ASSAY - IC50): 1.59 µM
IC90: > 10 µM

O=C(Nc1ncc(Cc2cccc(C(F)(F)F)c2)s1)c1ccc(-n2ccnc2)nc1
IC50 (FFLUC_HILL_SLOPE 11.4, FFLUC_R_SQUARED 0.309, HEPG2TOX_HILL_SLOPE 1.14, HEPG2TOX_R_SQUARED 0.957, PBLUC_HILL_SLOPE 2.81, PBLUC_R_SQUARED 0.544, read-out: LUCIFERASE INFECTION ASSAY - IC50): 3.35 µM
IC90: 7.33 µM

O=C1/C(=C/c2ccc3c(c2)OCO3)CCCc2ccccc21
IC50 (HEPG2TOX_HILL_SLOPE 8.25, HEPG2TOX_R_SQUARED 0.793, PBLUC_HILL_SLOPE 3.07, PBLUC_R_SQUARED 0.361, read-out: LUCIFERASE INFECTION ASSAY - IC50): > 11.3 µM
IC90: > 11.3 µM

CC(OC(=O)c1ccccc1Nc1ccc(F)cc1)C(=O)N1CCCC1 (centres undefined)
IC50 (PBLUC_HILL_SLOPE 20.8, 17.7, PBLUC_R_SQUARED 0.125, 0.439, read-out: LUCIFERASE INFECTION ASSAY - IC50): 8.95 µM
IC90: 9.97 µM

COc1ccc(CCN=C(S)Nc2ccccc2C)cc1
IC50 [1]: > 11 µM
IC90: > 11 µM

O=C(NNC(=S)Nc1cc(C(F)(F)F)cc(C(F)(F)F)c1)c1cccnc1Oc1ccccc1
IC50 [1]: > 6.59 µM
IC90: > 6.59 µM

NC(=O)C1CCN(c2nc(/C=C/c3ccccc3)nc3sc4c(c23)CCCC4)CC1
IC50 (FFLUC_HILL_SLOPE 8.41, FFLUC_R_SQUARED 0.401, PBLUC_HILL_SLOPE 20.5, PBLUC_R_SQUARED 0.298, read-out: LUCIFERASE INFECTION ASSAY - IC50): 9.42 µM
IC90: > 10 µM

COc1ccccc1Oc1ccc(C(F)(F)F)cc1NC(=O)c1sc2ccccc2c1Cl
IC50 [1]: > 6.91 µM
IC90: > 6.91 µM

Cc1cc(NC(=O)c2cc(-c3ccc(Br)cc3)nc3ccccc23)n(-c2ccc([N+](=O)[O-])cc2)n1
IC50 (HEPG2TOX_HILL_SLOPE 1.65, HEPG2TOX_R_SQUARED 0.917, PBLUC_HILL_SLOPE 13.2, PBLUC_R_SQUARED 0.485, read-out: LUCIFERASE INFECTION ASSAY - IC50): 0.991 µM
IC90: 1.17 µM

NC(=S)N/N=C/c1ncc(C(F)(F)F)cc1Cl
IC50 (HEPG2TOX_HILL_SLOPE 1.78, HEPG2TOX_R_SQUARED 0.942, PBLUC_HILL_SLOPE 40.1, PBLUC_R_SQUARED 0.426, read-out: LUCIFERASE INFECTION ASSAY - IC50): 3.85 µM
IC90: 4.07 µM

CSc1sc(-c2ccn(S(=O)(=O)c3ccc(Cl)c(Cl)c3)n2)c2c1C(=O)CC(C)(C)C2
IC50 [1]: > 6.58 µM
IC90: > 6.58 µM

N#Cc1ccc(CN2CCCN(c3ncnc4sccc34)CC2)cc1
IC50 [1]: 1.67 µM
IC90: > 10 µM

CCCn1nc(C(=O)N2CCCc3ccccc32)c2ccccc2c1=O
IC50 [1]: > 10 µM
IC90: > 10 µM

Cc1ccc(NS(=O)(=O)c2ccc(NN=CC3C(=O)N(c4cccc(C(F)(F)F)c4)C(=O)c4ccccc43)c([N+](=O)[O-])c2)c(C)c1 (centres undefined)
IC50 (PBLUC_HILL_SLOPE 19.2, PBLUC_R_SQUARED 0.393, read-out: LUCIFERASE INFECTION ASSAY - IC50): 9.75 µM
IC90: > 10 µM

Cc1c(C(=O)Nc2nonc2-c2ccc3c(c2)CCCC3)oc2ccccc12
IC50 [1]: > 8.84 µM
IC90: > 8.84 µM

CC(C(=O)Nc1cccnc1)c1ccc2c(c1)[nH]c1ccc(Cl)cc12 (centres undefined)
IC50 (HEPG2TOX_HILL_SLOPE 3.6, HEPG2TOX_R_SQUARED 0.842, PBLUC_HILL_SLOPE 14.2, PBLUC_R_SQUARED 0.432, read-out: LUCIFERASE INFECTION ASSAY - IC50): 8.79 µM
IC90: > 9.43 µM

From ChEMBL document CHEMBL4483862, “Open-source discovery of chemical leads for next-generation chemoprotective antimalarials” (2018)
